The text below walks through data of US11427553B2, “Dihydrooxadiazinones” (Bayer Aktiengesellschaft, priority 2017, dated 2022).

One assay relates to HeLa cells. The experiment in a line: Assay 1 cell proliferation measurement (CTG, 72 h), HeLa. The format is cell-based, human. The settings on record: Homo sapiens, HeLa; Assay 1, 72 h, Cell Titer Glo; read-out: HeLa IC50 [nM] (Cervical cancer). The gist of the method:
(§1)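 CellTiter-Glo luminescence was read at treatment start (0 h plate) and after 72 h compound exposure at 37 °C. Doses were 2.5-fold steps, ten concentrations, top 100 nM final, 0.3% DMSO. Growth inhibition was scaled between 0 h and vehicle values, and IC50 was obtained by 4-parameter fitting.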
For orientation: Cellular ATP, detected with luciferase, serves as a proxy for viable cell number.

Another assay relates to SK-MEL-3 cells. The experiment in a line: Assay 1 cell proliferation measurement (CTG, 72 h), SK-MEL-3. The format is cell-based, human. The settings on record: Homo sapiens, SK-MEL3; Assay 1, 72 h, Cell Titer Glo; read-out: SK-MEL-3 IC50 [nM] (melanoma). The gist of the method:
as §1

The target in a further assay is human full length PDE3A (Homo sapiens (Human), UniProt Q14432). In words: Assay 4 PDE3A enzyme inhibition (3H-cAMP SPA). The format is biochemical. The settings on record: Sf9 cell extract. The gist of the method:
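Enzyme: Sf9 extract with overexpressed full-length PDE3A; substrate [8-3H]cAMP, 0.025 μCi/well; 60 min, room temperature, Tris/HCl pH 7.5 buffer with MgCl2, EDTA, BSA.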

The next assay deals with human full length PDE3B (Homo sapiens (Human), UniProt Q13370). In words: Assay 5 PDE3B enzyme inhibition (3H-cAMP SPA). The settings on record: Sf9 cell extract. The format is biochemical. The procedure, abridged:
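Sf9 cell extract expressing human full-length PDE3B, diluted for linear kinetics (<70% substrate use), in 50 mM Tris/HCl pH 7.5, 8.3 mM MgCl2, 1.7 mM EDTA. [8-3H]cAMP substrate, 60 min at room temperature; stopped with yttrium SPA beads, scintillation counting. IC50 from sigmoidal activity vs log concentration curves.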

The structures appear in SMILES notation. Structures can show the parent of a compound that is named as a salt.

Chain of human full length PDE3A (Q14432 whole entry): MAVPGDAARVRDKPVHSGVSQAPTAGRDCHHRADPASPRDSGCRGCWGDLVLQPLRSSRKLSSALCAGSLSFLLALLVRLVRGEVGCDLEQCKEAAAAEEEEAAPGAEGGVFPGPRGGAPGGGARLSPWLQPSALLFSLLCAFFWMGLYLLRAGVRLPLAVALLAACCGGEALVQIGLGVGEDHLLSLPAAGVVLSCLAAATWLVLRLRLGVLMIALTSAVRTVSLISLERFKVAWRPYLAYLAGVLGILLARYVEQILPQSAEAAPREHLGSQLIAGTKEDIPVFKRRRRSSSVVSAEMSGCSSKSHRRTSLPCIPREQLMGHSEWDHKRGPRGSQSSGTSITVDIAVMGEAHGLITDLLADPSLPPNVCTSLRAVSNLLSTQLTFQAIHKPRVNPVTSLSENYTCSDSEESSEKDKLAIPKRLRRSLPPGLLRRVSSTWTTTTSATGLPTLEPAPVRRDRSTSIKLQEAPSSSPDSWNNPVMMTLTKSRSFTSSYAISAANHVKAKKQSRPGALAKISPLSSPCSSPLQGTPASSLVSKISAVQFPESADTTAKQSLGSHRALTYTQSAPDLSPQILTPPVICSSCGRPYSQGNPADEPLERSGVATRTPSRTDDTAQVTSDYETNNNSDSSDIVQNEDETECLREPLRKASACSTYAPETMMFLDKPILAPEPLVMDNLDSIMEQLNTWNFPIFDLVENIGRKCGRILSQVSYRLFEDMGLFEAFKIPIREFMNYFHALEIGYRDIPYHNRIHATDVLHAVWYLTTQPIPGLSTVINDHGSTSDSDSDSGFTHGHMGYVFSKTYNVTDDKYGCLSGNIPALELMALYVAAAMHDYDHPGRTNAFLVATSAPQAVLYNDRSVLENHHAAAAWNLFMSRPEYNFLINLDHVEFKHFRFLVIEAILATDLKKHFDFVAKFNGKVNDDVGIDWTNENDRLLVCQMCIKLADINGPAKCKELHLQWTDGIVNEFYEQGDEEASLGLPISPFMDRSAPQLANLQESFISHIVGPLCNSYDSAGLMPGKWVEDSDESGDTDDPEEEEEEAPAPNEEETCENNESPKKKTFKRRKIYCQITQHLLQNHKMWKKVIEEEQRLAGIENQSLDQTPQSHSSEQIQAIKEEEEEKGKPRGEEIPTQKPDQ
Chain of human full length PDE3B (Q13370 whole entry): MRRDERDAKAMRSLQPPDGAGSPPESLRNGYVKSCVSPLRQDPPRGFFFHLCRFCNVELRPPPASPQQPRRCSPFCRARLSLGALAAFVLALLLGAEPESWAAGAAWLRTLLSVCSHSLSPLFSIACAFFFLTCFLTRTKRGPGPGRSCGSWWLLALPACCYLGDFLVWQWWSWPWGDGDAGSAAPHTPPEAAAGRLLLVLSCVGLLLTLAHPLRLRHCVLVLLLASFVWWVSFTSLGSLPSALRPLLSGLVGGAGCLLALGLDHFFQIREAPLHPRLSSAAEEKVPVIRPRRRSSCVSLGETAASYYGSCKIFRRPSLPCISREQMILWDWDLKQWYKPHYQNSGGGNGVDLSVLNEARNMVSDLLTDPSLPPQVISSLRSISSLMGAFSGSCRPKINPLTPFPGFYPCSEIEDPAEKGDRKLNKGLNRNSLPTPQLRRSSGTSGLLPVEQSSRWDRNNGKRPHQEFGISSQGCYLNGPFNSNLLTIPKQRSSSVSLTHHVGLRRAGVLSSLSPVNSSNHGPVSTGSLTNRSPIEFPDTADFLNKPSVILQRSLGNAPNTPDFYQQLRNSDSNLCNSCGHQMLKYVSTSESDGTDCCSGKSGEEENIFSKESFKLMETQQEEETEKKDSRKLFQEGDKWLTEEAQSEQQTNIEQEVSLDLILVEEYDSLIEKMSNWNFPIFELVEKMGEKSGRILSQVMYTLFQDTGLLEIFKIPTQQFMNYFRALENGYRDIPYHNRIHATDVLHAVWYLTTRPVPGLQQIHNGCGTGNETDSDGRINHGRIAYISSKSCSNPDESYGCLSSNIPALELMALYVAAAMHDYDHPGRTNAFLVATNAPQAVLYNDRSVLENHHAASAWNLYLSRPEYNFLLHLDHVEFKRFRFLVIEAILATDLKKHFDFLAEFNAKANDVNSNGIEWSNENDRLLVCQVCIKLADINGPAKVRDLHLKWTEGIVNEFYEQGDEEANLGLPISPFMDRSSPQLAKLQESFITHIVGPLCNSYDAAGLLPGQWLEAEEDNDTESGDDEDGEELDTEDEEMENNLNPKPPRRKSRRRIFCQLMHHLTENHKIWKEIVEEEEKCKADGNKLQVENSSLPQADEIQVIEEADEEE

For orientation: IC50 means the concentration needed to halve the response being measured. `C[C@@H](O)CNc1ccc(C2=NNC(=O)OC2)cc1C(F)(F)F` [Example 216, 5-[4-{[(2R)-2-Hydroxypropyl]amino}-3-(trifluoromethyl)phenyl]-3,6-dihydro-2H-1,3,4-oxadiazin-2-one]: the IC50 worked out at 6 nM in the assay with HeLa cells, 7 nM in the assay on SK-MEL-3 cells, 103 nM on human full length PDE3A and 167 nM at human full length PDE3B.

Turning to `Cc1ccc(-c2ccc(C3=NNC(=O)O[C@H]3C)cc2C(F)(F)F)c(F)c1` [Example 168, (6S)-5-[2′-Fluoro-4′-methyl-2-(trifluoromethyl)[1,1′-biphenyl]-4-yl]-6-methyl-3,6-dihydro-2H-1,3,4-oxadiazin-2-one], the IC50 came to 14 nM with HeLa cells, 25 nM with SK-MEL-3 cells, 170 nM against human full length PDE3A and 220 nM at human full length PDE3B.

Consider `NCCNc1ccc(C2=NNC(=O)OC2)cc1C(F)(F)F` [Example 274, 5-{4-[(2-Aminoethyl)amino]-3-(trifluoromethyl)phenyl}-3,6-dihydro-2H-1,3,4-oxadiazin-2-one-salt with hydrochloric acid], for which the half-inhibitory concentration (IC50) in the assay with HeLa cells is 19 nM; in the assay on SK-MEL-3 cells, 31 nM; against human full length PDE3A, 300 nM; on human full length PDE3B it was 400 nM.

Turning to `Cc1nn(C)cc1-c1ccc(C2=NNC(=O)OC2)cc1C(F)(F)F` [Example 52, 5-[4-(1,3-Dimethyl-1H-pyrazol-4-yl)-3-(trifluoromethyl)phenyl]-3,6-dihydro-2H-1,3,4-oxadiazin-2-one], the IC50 in the assay on HeLa cells is 48 nM; with SK-MEL-3 cells, > 100 nM; at human full length PDE3A, 65 nM; against human full length PDE3B, 30 nM.

In the case of `C[C@@H]1OC(=O)NN=C1c1ccc(-c2ccc3cc[nH]c3c2)c(C(F)(F)F)c1` [Example 185, (6S)-5-[4-(1H-Indol-6-yl)-3-(trifluoromethyl)phenyl]-6-methyl-3,6-dihydro-2H-1,3,4-oxadiazin-2-one], the IC50 was 4 nM in the assay with HeLa cells, 6 nM with SK-MEL-3 cells, 49 nM at human full length PDE3A and 48 nM against human full length PDE3B.

Consider `O=C1NN=C(c2ccc(-c3ccc(C(F)(F)F)s3)c(C(F)(F)F)c2)CO1` [Example 156, 5-{3-(Trifluoromethyl)-4-[5-(trifluoromethyl)thiophen-2-yl]phenyl}-3,6-dihydro-2H-1,3,4-oxadiazin-2-one], for which the IC50 in the assay on HeLa cells came to 55 nM; in the assay on SK-MEL-3 cells it was 68 nM; at human full length PDE3A, 440 nM; on human full length PDE3B, 650 nM.

Consider `O=C1NN=C(c2ccc(-c3ccc4cn[nH]c4c3)c(C(F)(F)F)c2)CO1` [Example 47, 5-[4-(1H-Indazol-6-yl)-3-(trifluoromethyl)phenyl]-3,6-dihydro-2H-1,3,4-oxadiazin-2-one], for which the half-maximal inhibitory concentration (IC50) in the assay with HeLa cells came out at 2 nM; in the assay with SK-MEL-3 cells, 2 nM; against human full length PDE3A it was 53 nM; at human full length PDE3B it was 33 nM.

`O=C1NN=C(c2ccc(-c3ccc(F)cn3)c(C(F)(F)F)c2)CO1` [Example 158, 5-[4-(5-Fluoropyridin-2-yl)-3-(trifluoromethyl)phenyl]-3,6-dihydro-2H-1,3,4-oxadiazin-2-one]: the 50% inhibitory concentration (IC50) was 22 nM in the assay with HeLa cells, 40 nM in the assay on SK-MEL-3 cells, 500 nM at human full length PDE3A and 720 nM against human full length PDE3B.

For the compound `O=C1NN=C(c2ccc(-c3ccccc3F)c(C(F)(F)F)c2)CO1` [Example 155, 5-[2′-Fluoro-2-(trifluoromethyl)[1,1′-biphenyl]-4-yl]-3,6-dihydro-2H-1,3,4-oxadiazin-2-one], the IC50 with HeLa cells was 9 nM; in the assay with SK-MEL-3 cells it was 17 nM; against human full length PDE3A it was 92 nM; against human full length PDE3B, 110 nM.

`Cc1ccc(-c2ccc(C3=NNC(=O)OC3)cc2F)cn1` [Example 97, 5-[3-Fluoro-4-(6-methylpyridin-3-yl)phenyl]-3,6-dihydro-2H-1,3,4-oxadiazin-2-one]: the IC50 in the assay on HeLa cells was determined as 5 nM; in the assay on SK-MEL-3 cells, 8 nM; on human full length PDE3A, 65 nM; on human full length PDE3B, 130 nM.
